Data taken from patent publication EP3689885B1, “HIGHLY EFFECTIVE CONCENTRATES WITH PPDA AND THEIR USE IN STABILIZING MATERIALS IN ANIMAL EXCREMENTS” (SKW STICKSTOFFWERKE PIESTERITZ GmbH, priority 2019, dated 2020).
“Also recorded” adds a separate entry of the source.

Assays:
[1] = Maximum solubility of PPDA in solvents / solvent mixtures; format: physicochemical
From the text: (§1) PPDA wurde bis zur maximalen Löslichkeit in die Lösungsmittel/ Lösungsmittelgemische eingebracht, die Lösungen wurden bei Raumtemperatur gelagert und der Wirkstoffgehalt (PPDA) nach 48 Wochen mittels HPLC überprüft.

[2] = Stability of the active ingredient (PPDA) in the solution, HPLC; format: physicochemical; conditions: room temperature, 483840 min
From the text: as §1

Urease = conditions: literature (Wenzel et al. 1983; Leinker 2007, laboratory screening); cited from earlier work

Question: Which results are given for `NP(N)(=O)Oc1ccccc1` [PPDA, Phenylphosphorsäurediamid]?
Answer: Löslichkeit ([1]; DMSO/Diethylenglycolmonomethylether, Anteil LM 1 20 %, room temperature): 3,0%; Löslichkeit ([1]; DMSO/Diethylenglycolmonomethylether, Anteil LM 1 40 %, room temperature): 4,4%; Löslichkeit ([1]; DMSO/Diethylenglycolmonomethylether, Anteil LM 1 60 %, room temperature): 7,8%; Löslichkeit ([1]; DMSO/Diethylenglycolmonomethylether, Anteil LM 1 80 %, room temperature): 11,5%; Löslichkeit ([1]; DMSO/Glycerinformal, Anteil LM 1 20 %, room temperature): 4,1%; Löslichkeit ([1]; DMSO/Glycerinformal, Anteil LM 1 40 %, room temperature): 4,9%; Löslichkeit ([1]; DMSO/Glycerinformal, Anteil LM 1 60 %, room temperature): 6,7%; Löslichkeit ([1]; DMSO/Glycerinformal, Anteil LM 1 80 %, room temperature): 10,3%; Löslichkeit ([1]; DMSO/Propylenglycolmonomethyl ether, Anteil LM 1 20 %, room temperature): 2,2%; Löslichkeit ([1]; DMSO/Propylenglycolmonomethyl ether, Anteil LM 1 40 %, room temperature): 3,5%; Löslichkeit ([1]; DMSO/Propylenglycolmonomethyl ether, Anteil LM 1 60 %, room temperature): 6,2%; Löslichkeit ([1]; DMSO/Propylenglycolmonomethyl ether, Anteil LM 1 80 %, room temperature): 10,7%; Löslichkeit ([1]; DMSO/Pyrrolidon, Anteil LM 1 20 %, room temperature): 6,0%; Löslichkeit ([1]; DMSO/Pyrrolidon, Anteil LM 1 40 %, room temperature): 8,4%; Löslichkeit ([1]; DMSO/Pyrrolidon, Anteil LM 1 60 %, room temperature): 9,9%; Löslichkeit ([1]; DMSO/Pyrrolidon, Anteil LM 1 80 %, room temperature): 12,0%; Löslichkeit ([1]; DMSO, room temperature): 11,5%; Löslichkeit ([1]; Diethylenenglycolmonomethylether / Glycerinformal, Anteil LM 1 20 %, room temperature): 3,9%; Löslichkeit ([1]; Diethylenenglycolmonomethylether / Glycerinformal, Anteil LM 1 40 %, room temperature): 3,3%; Löslichkeit ([1]; Diethylenenglycolmonomethylether / Glycerinformal, Anteil LM 1 60 %, room temperature): 3,1%; Löslichkeit ([1]; Diethylenenglycolmonomethylether / Glycerinformal, Anteil LM 1 80 %, room temperature): 2,6%; Löslichkeit ([1]; Propylenglycol monomethylether / Glycerinformal, Anteil LM 1 20 %, room temperature): 2,8%; Löslichkeit ([1]; Propylenglycol monomethylether / Glycerinformal, Anteil LM 1 40 %, room temperature): 2,7%; Löslichkeit ([1]; Propylenglycol monomethylether / Glycerinformal, Anteil LM 1 60 %, room temperature): 2,2%; Löslichkeit ([1]; Propylenglycol monomethylether / Glycerinformal, Anteil LM 1 80 %, room temperature): 1,5%; Löslichkeit ([1]; Propylenglycol monomethylether / Pyrrolidon, Anteil LM 1 40 %, room temperature): 3,7%; Löslichkeit ([1]; Propylenglycol monomethylether / Pyrrolidon, Anteil LM 1 60 %, room temperature): 2,9%; Löslichkeit ([1]; Propylenglycol monomethylether / Pyrrolidon, Anteil LM 1 80 %, room temperature): 1,1%; Löslichkeit ([1]; Pyrrolidon / Glycerinformal, Anteil LM 1 20 %, room temperature): 4,3%; Löslichkeit ([1]; Tetraethylenglycol / Pyrrolidon, Anteil LM 1 40 %, room temperature): 5,5%; Löslichkeit ([1]; Tetraethylenglycol / Pyrrolidon, Anteil LM 1 60 %, room temperature): 3,6%; Löslichkeit ([1]; in most solvents generally known as good solvents for phosphoric acid amides (not named)): < 1%; Wirkstoffwiederfindung nach 48 Wochen ([2]; saturated solution in DMSO): 81%; Wirkstoffwiederfindung nach 48 Wochen ([2]; saturated solution in DMSO/Diethylenglycolmonomethylether, Anteil LM 1 20 %): 83%; Wirkstoffwiederfindung nach 48 Wochen ([2]; saturated solution in DMSO/Diethylenglycolmonomethylether, Anteil LM 1 40 %): 85%; Wirkstoffwiederfindung nach 48 Wochen ([2]; saturated solution in DMSO/Diethylenglycolmonomethylether, Anteil LM 1 60 %): 93%; Wirkstoffwiederfindung nach 48 Wochen ([2]; saturated solution in DMSO/Diethylenglycolmonomethylether, Anteil LM 1 80 %): 80%; Wirkstoffwiederfindung nach 48 Wochen ([2]; saturated solution in DMSO/Glycerinformal, Anteil LM 1 20 %): 82%; Wirkstoffwiederfindung nach 48 Wochen ([2]; saturated solution in DMSO/Glycerinformal, Anteil LM 1 40 %): 91%; Wirkstoffwiederfindung nach 48 Wochen ([2]; saturated solution in DMSO/Glycerinformal, Anteil LM 1 60 %): 92%; Wirkstoffwiederfindung nach 48 Wochen ([2]; saturated solution in DMSO/Glycerinformal, Anteil LM 1 80 %): 86%; Wirkstoffwiederfindung nach 48 Wochen ([2]; saturated solution in DMSO/Propylenglycolmonomethyl ether, Anteil LM 1 20 %): 100%; Wirkstoffwiederfindung nach 48 Wochen ([2]; saturated solution in DMSO/Propylenglycolmonomethyl ether, Anteil LM 1 40 %): 100%; Wirkstoffwiederfindung nach 48 Wochen ([2]; saturated solution in DMSO/Propylenglycolmonomethyl ether, Anteil LM 1 60 %): 95%; Wirkstoffwiederfindung nach 48 Wochen ([2]; saturated solution in DMSO/Propylenglycolmonomethyl ether, Anteil LM 1 80 %): 89%; Wirkstoffwiederfindung nach 48 Wochen ([2]; saturated solution in DMSO/Pyrrolidon, Anteil LM 1 20 %): 79%; Wirkstoffwiederfindung nach 48 Wochen ([2]; saturated solution in DMSO/Pyrrolidon, Anteil LM 1 40 %): 88%; Wirkstoffwiederfindung nach 48 Wochen ([2]; saturated solution in DMSO/Pyrrolidon, Anteil LM 1 60 %): 93%; Wirkstoffwiederfindung nach 48 Wochen ([2]; saturated solution in DMSO/Pyrrolidon, Anteil LM 1 80 %): 92%; Wirkstoffwiederfindung nach 48 Wochen ([2]; saturated solution in Diethylenenglycolmonomethylether / Glycerinformal, Anteil LM 1 20 %): 85%; Wirkstoffwiederfindung nach 48 Wochen ([2]; saturated solution in Diethylenenglycolmonomethylether / Glycerinformal, Anteil LM 1 40 %): 89%; Wirkstoffwiederfindung nach 48 Wochen ([2]; saturated solution in Diethylenenglycolmonomethylether / Glycerinformal, Anteil LM 1 60 %): 72%; Wirkstoffwiederfindung nach 48 Wochen ([2]; saturated solution in Diethylenenglycolmonomethylether / Glycerinformal, Anteil LM 1 80 %): 73%; Wirkstoffwiederfindung nach 48 Wochen ([2]; saturated solution in Propylenglycol monomethylether / Glycerinformal, Anteil LM 1 20 %): 93%; Wirkstoffwiederfindung nach 48 Wochen ([2]; saturated solution in Propylenglycol monomethylether / Glycerinformal, Anteil LM 1 40 %): 100%; Wirkstoffwiederfindung nach 48 Wochen ([2]; saturated solution in Propylenglycol monomethylether / Glycerinformal, Anteil LM 1 60 %): 100%; Wirkstoffwiederfindung nach 48 Wochen ([2]; saturated solution in Propylenglycol monomethylether / Glycerinformal, Anteil LM 1 80 %): 100%; Wirkstoffwiederfindung nach 48 Wochen ([2]; saturated solution in Propylenglycol monomethylether / Pyrrolidon, Anteil LM 1 40 %): 100%; Wirkstoffwiederfindung nach 48 Wochen ([2]; saturated solution in Propylenglycol monomethylether / Pyrrolidon, Anteil LM 1 60 %): 100%; Wirkstoffwiederfindung nach 48 Wochen ([2]; saturated solution in Propylenglycol monomethylether / Pyrrolidon, Anteil LM 1 80 %): 100%; Wirkstoffwiederfindung nach 48 Wochen ([2]; saturated solution in Pyrrolidon / Glycerinformal, Anteil LM 1 20 %): 72%; Wirkstoffwiederfindung nach 48 Wochen ([2]; saturated solution in Tetraethylenglycol / Pyrrolidon, Anteil LM 1 40 %): 87%; Wirkstoffwiederfindung nach 48 Wochen ([2]; saturated solution in Tetraethylenglycol / Pyrrolidon, Anteil LM 1 60 %): 76%; Wirksamkeit als Urease-Inhibitor (Urease): mittlerer Wirkungsstärke; also recorded: nur mittlere Wirksamkeit
